The CheMixHub viscosity set
± gives the uncertainty stated by the source.

Experiment: xn = mol fraction of the nth substance listed

SMILES: Cc1cc(C)cc(C)c1 + C1CCCCC1
- viscosity (303 K, 101 kPa, x1 = 0.1028): 0.7231 ± 0.0051 mPa·s
- viscosity (303 K, 101 kPa, x1 = 0.2002): 0.6616 ± 0.0048 mPa·s
- viscosity (303 K, 101 kPa, x1 = 0.299): 0.6393 ± 0.0047 mPa·s
- viscosity (303 K, 101 kPa, x1 = 0.396): 0.6187 ± 0.0047 mPa·s
- viscosity (303 K, 101 kPa, x1 = 0.4961): 0.6085 ± 0.0047 mPa·s
- viscosity (303 K, 101 kPa, x1 = 0.5971): 0.6054 ± 0.0047 mPa·s
- viscosity (303 K, 101 kPa, x1 = 0.699): 0.6015 ± 0.0048 mPa·s
- viscosity (303 K, 101 kPa, x1 = 0.7992): 0.6055 ± 0.0049 mPa·s
- viscosity (303 K, 101 kPa, x1 = 0.8983): 0.6081 ± 0.005 mPa·s
- viscosity (303.15 K, 101 kPa, x1 = 0.1001): 0.7294 ± 0.0076 mPa·s
- viscosity (303.15 K, 101 kPa, x1 = 0.2001): 0.6775 ± 0.0073 mPa·s
- viscosity (303.15 K, 101 kPa, x1 = 0.3): 0.6444 ± 0.0072 mPa·s
- viscosity (303.15 K, 101 kPa, x1 = 0.4): 0.6263 ± 0.0071 mPa·s
- viscosity (303.15 K, 101 kPa, x1 = 0.5): 0.6163 ± 0.007 mPa·s
- viscosity (303.15 K, 101 kPa, x1 = 0.6): 0.6104 ± 0.007 mPa·s
- viscosity (303.15 K, 101 kPa, x1 = 0.7): 0.6099 ± 0.007 mPa·s
- viscosity (303.15 K, 101 kPa, x1 = 0.8001): 0.6119 ± 0.007 mPa·s
- viscosity (303.15 K, 101 kPa, x1 = 0.9): 0.6162 ± 0.007 mPa·s
- viscosity (308.15 K, 101 kPa, x1 = 0.1001): 0.6779 ± 0.0073 mPa·s
- viscosity (308.15 K, 101 kPa, x1 = 0.2001): 0.6326 ± 0.0071 mPa·s
- viscosity (308.15 K, 101 kPa, x1 = 0.3): 0.6039 ± 0.0069 mPa·s
- viscosity (308.15 K, 101 kPa, x1 = 0.4): 0.5881 ± 0.0069 mPa·s
- viscosity (308.15 K, 101 kPa, x1 = 0.5): 0.5791 ± 0.0068 mPa·s
- viscosity (308.15 K, 101 kPa, x1 = 0.6): 0.5748 ± 0.0068 mPa·s
- viscosity (308.15 K, 101 kPa, x1 = 0.7): 0.5746 ± 0.0068 mPa·s
- viscosity (308.15 K, 101 kPa, x1 = 0.8001): 0.5767 ± 0.0068 mPa·s
- viscosity (308.15 K, 101 kPa, x1 = 0.9): 0.5819 ± 0.0068 mPa·s
- viscosity (313 K, 101 kPa, x1 = 0.1028): 0.6296 ± 0.0045 mPa·s
- viscosity (313 K, 101 kPa, x1 = 0.2002): 0.5833 ± 0.0043 mPa·s
- viscosity (313 K, 101 kPa, x1 = 0.299): 0.5651 ± 0.0042 mPa·s
- viscosity (313 K, 101 kPa, x1 = 0.396): 0.5553 ± 0.0042 mPa·s
- viscosity (313 K, 101 kPa, x1 = 0.4961): 0.5439 ± 0.0042 mPa·s
- viscosity (313 K, 101 kPa, x1 = 0.5971): 0.54 ± 0.0043 mPa·s
- viscosity (313 K, 101 kPa, x1 = 0.699): 0.5379 ± 0.0043 mPa·s
- viscosity (313 K, 101 kPa, x1 = 0.7992): 0.543 ± 0.0044 mPa·s
- viscosity (313 K, 101 kPa, x1 = 0.8983): 0.543 ± 0.0045 mPa·s
- viscosity (313.15 K, 101 kPa, x1 = 0.1001): 0.6321 ± 0.0071 mPa·s
- viscosity (313.15 K, 101 kPa, x1 = 0.2001): 0.5925 ± 0.0069 mPa·s
- viscosity (313.15 K, 101 kPa, x1 = 0.3): 0.5675 ± 0.0068 mPa·s
- viscosity (313.15 K, 101 kPa, x1 = 0.4): 0.5539 ± 0.0067 mPa·s
- viscosity (313.15 K, 101 kPa, x1 = 0.5): 0.5465 ± 0.0067 mPa·s
- viscosity (313.15 K, 101 kPa, x1 = 0.6): 0.5431 ± 0.0066 mPa·s
- viscosity (313.15 K, 101 kPa, x1 = 0.7): 0.5428 ± 0.0066 mPa·s
- viscosity (313.15 K, 101 kPa, x1 = 0.8001): 0.5451 ± 0.0067 mPa·s
- viscosity (313.15 K, 101 kPa, x1 = 0.9): 0.551 ± 0.0067 mPa·s
- viscosity (318.15 K, 101 kPa, x1 = 0.1001): 0.591 ± 0.0069 mPa·s
- viscosity (318.15 K, 101 kPa, x1 = 0.2001): 0.5562 ± 0.0067 mPa·s
- viscosity (318.15 K, 101 kPa, x1 = 0.3): 0.5341 ± 0.0066 mPa·s
- viscosity (318.15 K, 101 kPa, x1 = 0.4): 0.5231 ± 0.0066 mPa·s
- viscosity (318.15 K, 101 kPa, x1 = 0.5): 0.5165 ± 0.0065 mPa·s
- viscosity (318.15 K, 101 kPa, x1 = 0.6): 0.5143 ± 0.0065 mPa·s
- viscosity (318.15 K, 101 kPa, x1 = 0.7): 0.514 ± 0.0065 mPa·s
- viscosity (318.15 K, 101 kPa, x1 = 0.8001): 0.5165 ± 0.0065 mPa·s
- viscosity (318.15 K, 101 kPa, x1 = 0.9): 0.5223 ± 0.0066 mPa·s
- viscosity (323 K, 101 kPa, x1 = 0.1028): 0.5473 ± 0.004 mPa·s
- viscosity (323 K, 101 kPa, x1 = 0.2002): 0.518 ± 0.0039 mPa·s
- viscosity (323 K, 101 kPa, x1 = 0.299): 0.5048 ± 0.0039 mPa·s
- viscosity (323 K, 101 kPa, x1 = 0.396): 0.4899 ± 0.0038 mPa·s
- viscosity (323 K, 101 kPa, x1 = 0.4961): 0.4892 ± 0.0039 mPa·s
- viscosity (323 K, 101 kPa, x1 = 0.5971): 0.4863 ± 0.0039 mPa·s
- viscosity (323 K, 101 kPa, x1 = 0.699): 0.4853 ± 0.004 mPa·s
- viscosity (323 K, 101 kPa, x1 = 0.7992): 0.4858 ± 0.004 mPa·s
- viscosity (323 K, 101 kPa, x1 = 0.8983): 0.4893 ± 0.0041 mPa·s
- viscosity (323.15 K, 101 kPa, x1 = 0.1001): 0.5529 ± 0.0067 mPa·s
- viscosity (323.15 K, 101 kPa, x1 = 0.2001): 0.5229 ± 0.0066 mPa·s
- viscosity (323.15 K, 101 kPa, x1 = 0.3): 0.5036 ± 0.0065 mPa·s
- viscosity (323.15 K, 101 kPa, x1 = 0.4): 0.4941 ± 0.0064 mPa·s
- viscosity (323.15 K, 101 kPa, x1 = 0.5): 0.4886 ± 0.0064 mPa·s
- viscosity (323.15 K, 101 kPa, x1 = 0.6): 0.4873 ± 0.0064 mPa·s
- viscosity (323.15 K, 101 kPa, x1 = 0.7): 0.4871 ± 0.0064 mPa·s
- viscosity (323.15 K, 101 kPa, x1 = 0.8001): 0.4904 ± 0.0064 mPa·s
- viscosity (323.15 K, 101 kPa, x1 = 0.9): 0.494 ± 0.0064 mPa·s

SMILES: Cc1cc(C)cc(C)c1 + C1CCOC1
- viscosity (298.15 K, 101 kPa, x2 = 0.0735): 0.5973 ± 0.01 mPa·s
- viscosity (298.15 K, 101 kPa, x2 = 0.1513): 0.5921 ± 0.01 mPa·s
- viscosity (298.15 K, 101 kPa, x2 = 0.2274): 0.5863 ± 0.01 mPa·s
- viscosity (298.15 K, 101 kPa, x2 = 0.2986): 0.5793 ± 0.01 mPa·s
- viscosity (298.15 K, 101 kPa, x2 = 0.3672): 0.5728 ± 0.01 mPa·s
- viscosity (298.15 K, 101 kPa, x2 = 0.4305): 0.5659 ± 0.0099 mPa·s
- viscosity (298.15 K, 101 kPa, x2 = 0.4912): 0.5568 ± 0.0098 mPa·s
- viscosity (298.15 K, 101 kPa, x2 = 0.6055): 0.5353 ± 0.0094 mPa·s
- viscosity (298.15 K, 101 kPa, x2 = 0.6784): 0.5237 ± 0.0092 mPa·s
- viscosity (298.15 K, 101 kPa, x2 = 0.7516): 0.512 ± 0.009 mPa·s
- viscosity (298.15 K, 101 kPa, x2 = 0.828): 0.4999 ± 0.0088 mPa·s
- viscosity (298.15 K, 101 kPa, x2 = 0.879): 0.4857 ± 0.0086 mPa·s
- viscosity (298.15 K, 101 kPa, x2 = 0.9412): 0.4724 ± 0.0083 mPa·s

SMILES: Cc1cc(C)cc(C)c1 + CC(C)=O
- viscosity (307.35 K, 101.33 kPa, x2 = 0.1387): 0.541 ± 0.0096 mPa·s
- viscosity (307.35 K, 101.33 kPa, x2 = 0.4493): 0.447 ± 0.0088 mPa·s
- viscosity (307.35 K, 101.33 kPa, x2 = 0.5975): 0.403 ± 0.0084 mPa·s
- viscosity (307.35 K, 101.33 kPa, x2 = 0.6567): 0.383 ± 0.0083 mPa·s
- viscosity (307.35 K, 101.33 kPa, x2 = 0.7521): 0.362 ± 0.0081 mPa·s
- viscosity (307.35 K, 101.33 kPa, x2 = 0.9168): 0.313 ± 0.0077 mPa·s

SMILES: O=S=O + CC(C)=O
- viscosity (298.15 K, 101 kPa, x1 = 0.04866): 0.3122 ± 0.0083 mPa·s
- viscosity (298.15 K, 101 kPa, x1 = 0.1662): 0.3313 ± 0.0088 mPa·s
- viscosity (298.15 K, 101 kPa, x1 = 0.2057): 0.3365 ± 0.0089 mPa·s
- viscosity (298.15 K, 101 kPa, x1 = 0.2466): 0.3415 ± 0.009 mPa·s
- viscosity (298.15 K, 101 kPa, x1 = 0.2858): 0.343 ± 0.0091 mPa·s
- viscosity (298.15 K, 101 kPa, x1 = 0.4007): 0.3471 ± 0.0092 mPa·s

SMILES: O=C1CCCN1 + CC(C)CO
- viscosity (303.15 K, 101 kPa, x1 = 0.9753): 10.15 ± 0.76 mPa·s
